Legend:
[1] = tested on: acyl coenzyme-A:cholesterol-O-acyl transferase (ACAT; EC 2.3.1.26); experiment: ACAT inhibition in rat liver microsomes incubated with radiolabelled oleoyl-CoA; type: biochemical; conditions: liver microsomes of rats fed 0.5%w/w cholesterol and 0.25%w/w cholic acid for 7 days; for In-vitro % Inhibition at 1»g/ml: compound at 1»g/ml; for In-vitro % Inhibition at 0.5»g/ml: compound at 0.5»g/ml
Method: In assays performed in-vitro, microsomes, obtained from the livers of rats fed on a diet supplemented with 0.5%w/w cholesterol and 0.25%w/w cholic acid for 7 days, were incubated with radiolabelled oleoyl-CoA in the presence of compounds according to the invention at a concentration of 0.5 or 1 »g/ml.

[2] = tested on: plasma cholesterol concentrations; experiment: Inhibition of increases in plasma cholesterol in cholesterol-fed rats; type: in vivo; conditions: diet supplemented by 0.03% w/w of test compound, measured after 3 days, relative to control animals

Row | Compound | In-vitro % Inhibition at 1»g/ml [1] | In-vitro % Inhibition at 0.5»g/ml [1] | In-vivo % Inhibition [2]
1 | c1ccc(-c2nc(SCCn3ccnc3)[nH]c2-c2ccccc2)cc1 [Compound 1G] | 86% |  | 
2 | Cc1ncc([N+](=O)[O-])n1CCSc1nc(-c2ccccc2)c(-c2ccccc2)[nH]1 [Compound 1O, 2-[2-(2-methyl-5-nitroimidazol-1-yl)ethylthio]-4,5-diphenylimidazole] |  | 82% | 
3 | CC(Sc1nc(-c2ccccc2)c(-c2ccccc2)[nH]1)n1ccnc1 (racemic) [Compound 1I, (±)-2-[1-(imidazol-1-yl)ethylthio]-4,5-diphenylimidazole] | 53% |  | 
4 | c1ccc(-c2nc(SCCCn3ncnn3)[nH]c2-c2ccccc2)cc1 [Compound 1R, 2-[3-(tetrazol-2-yl)propylthio]-4,5-diphenylimidazole] | 80% |  | 
5 | c1ccc(-c2nc(SCCCn3ccnc3)[nH]c2-c2ccccc2)cc1 [Compound 1H, 2-[3-(imidazol-1-yl)propylthio]-4,5-diphenylimidazole] | 80% |  | 
6 | c1ccc(-c2nc(SCc3ccncc3)[nH]c2-c2ccccc2)cc1 [Compound 1U, 2-[pyrid-4-ylmethylthio]-4,5-diphenylimidazole] | 71% |  | 
7 | c1ccc(-c2nc(SCCCn3ccnc3-c3ccccc3)[nH]c2-c2ccccc2)cc1 [Compound 1N, 2-[3-(2-phenylimidazol-1-yl)propylthio]-4,5-diphenylimidazole] |  | 57% | 
8 | Cc1cc(C)n(CCCSc2nc(-c3ccccc3)c(-c3ccccc3)[nH]2)n1 [Compound 1P, 2-[3-(3,5-dimethylpyrazol-1-yl)propylthio]-4,5-diphenylimidazole] |  | 87% | 
9 | Cn1ccnc1CSc1nc(-c2ccccc2)c(-c2ccccc2)[nH]1 [Compound 1J, 2-[(1-methylimidazol-2-yl)methylthio]-4,5-diphenylimidazole] | 85% |  | 
10 | Cl.Cn1ccnc1CSc1nc(-c2ccccc2)c(-c2ccccc2)[nH]1 [Compound 1JA, 2-[(1-methylimidazol-2-yl)methylthio]-4,5-diphenylimidazole hydrochloride] | 82% |  | 23%
11 | c1ccc(Cn2ccnc2CSc2nc(-c3ccccc3)c(-c3ccccc3)[nH]2)cc1 [Compound 1K, 2-[(1-benzylimidazol-2-yl)methylthio]-4,5-diphenylimidazole] | 57% |  | 
12 | Cc1nccn1CCCSc1nc(-c2ccccc2)c(-c2ccccc2)[nH]1 [Compound 1A, 2-[3-(2-methylimidazol-1-yl)propylthio]-4,5-diphenylimidazole] | 90% |  | 64%

Continued, in another order:

Row | In-vitro % Inhibition at 1»g/ml [1] | In-vitro % Inhibition at 0.5»g/ml [1] | Compound | In-vivo % Inhibition [2]
13 |  | 74% | c1ccc(-c2nc(SCCCCn3ncnn3)[nH]c2-c2ccccc2)cc1 [Compound 1T, 2-[4-(tetrazol-2-yl)butylthio]-4,5-diphenylimidazole] | 
14 | 84% |  | c1ccc(-c2nc(SCCCn3cncn3)[nH]c2-c2ccccc2)cc1 [Compound 1D, 2-[3-(1,2,4-triazol-1-yl)propylthio]-4,5-diphenylimidazole] | 
15 |  | 84% | c1ccc(-c2nc(SCCCCn3cnnn3)[nH]c2-c2ccccc2)cc1 [Compound 1S, 2-[4-(tetrazol-1-yl)butylthio]-4,5-diphenylimidazole] | 41%
16 | 86% |  | c1ccc(-c2nc(SCCCCn3cncn3)[nH]c2-c2ccccc2)cc1 [Compound 1E, 2-[4-(1,2,4-triazol-1-yl)butylthio]-4,5-diphenylimidazole] | 53%
17 | 88% |  | c1ccc(-c2nc(SCCCn3cnnn3)[nH]c2-c2ccccc2)cc1 [Compound 1Q, 2-[3-(tetrazol-1-yl)propylthio]-4,5-diphenylimidazole] | 
18 | 83% |  | c1ccc(-c2nc(SCCCn3cccn3)[nH]c2-c2ccccc2)cc1 [Compound 1B, 2-[3-(pyrazol-1-yl)propylthio]-4,5-diphenylimidazole] | 
19 | 88% |  | c1ccc(-c2nc(SCCn3cncn3)[nH]c2-c2ccccc2)cc1 [Compound 1C, 2-[2-(1,2,4-triazol-1-yl)ethylthio]-4,5-diphenylimidazole] | 
20 |  | 87% | Cc1nccn1CCCCSc1nc(-c2ccccc2)c(-c2ccccc2)[nH]1 [Compound 1M, 2-[4-(2-methylimidazol-1-yl)butylthio]-4,5-diphenylimidazole] | 26%
21 | 92% |  | c1ccc(-c2nc(SCCCCCn3cncn3)[nH]c2-c2ccccc2)cc1 [Compound 1F, 2-[5-(1,2,4-triazol-1-yl)pentylthio]-4,5-diphenylimidazole] | 74%
22 | 91% |  | c1ccc(-c2nc(SCCCCCCn3cncn3)[nH]c2-c2ccccc2)cc1 [Compound 1L, 2-[6-(1,2,4-triazol-1-yl)hexylthio]-4,5-diphenylimidazole] | 
